According to US20230339981A1, “KRAS G12D MODULATING COMPOUNDS” (priority 2022, published 2023):

What was measured:
GDP-loaded KRAS G12D = GDP-loaded KRAS G12D (Homo sapiens (Human), UniProt P01116, G12D); assay: KRAS G12D (GDP) biochemical assay (TR-FRET probe displacement); assay type: binding; conditions: 2 hours
Protocol: Example A. KRAS G12D (GDP) Biochemical Assay
Compounds were tested for binding to GDP-loaded KRAS G12D in a 384-well assay format using a TR-FRET probe displacement assay in buffer consisting of 50 mM Hepes (pH 7.4), 150 mM NaCl, 5 mM MgCl2 and 0.005% Tween-20. […] Compounds were serially diluted (1:3) in DMSO. The LabCyte ECHO Acoustic dispenser system was used to pre-spot the assay plates (384-well Non-Binding Surface plates, Corning, Catalog #3824) with 50 nL of compound. The compounds were pre-incubated with 5 μL of 2× final enzyme concentration for 30 minutes before adding 5 μL of 2× final concentration of Eu-streptavidin and TR-FRET probe (10 μL final reaction volume). The plates were incubated at room temperature for 2 hours before measuring TR-FRET ratio on the Envision plate reader. IC50 values were defined as the compound concentration that causes a 50% decrease in TR-FRET ratio and were calculated using a sigmoidal dose-response model to generate curve fits.

GP2D (KRAS G12D) cells = assay: 2D cell viability assay (CellTiter-Glo); assay type: cell-based; conditions: GP2d, 96 h, 4 days
Protocol: Example B. 2D Cell Viability Assay
Compounds were tested in a 384-well format for their ability to inhibit the viability of GP2D (KRAS G12D) cells in 2D assays. Compounds were serially diluted (1:3) in DMSO. The LabCyte ECHO Acoustic dispenser system was used to pre-spot assay plates with 200 nL of test molecule per well. 1000 cells/well (40 μL volume per well) in RPMI medium with 10% FBS, and Penicillin-Streptomycin-Glutamine were plated in pre-spotted 384-well plates (Greiner, Catalog #781076) on the BioTEK EL406 liquid dispenser with a 5 μL dispensing cassette (BioTek 7170011). The plates were incubated at 37° C., 5% CO2 for 4 days before addition of CellTiter-Glo (CTG) reagent and measurement of luminescence signal. EC50 values were defined as the compound concentration that causes a 50% decrease in luminescence signal and were calculated using a sigmoidal dose-response model to generate curve fits.

GDP-loaded KRAS G12D, sequence (P01116-2 other isoform, or with tags, fused parts or gaps G12D): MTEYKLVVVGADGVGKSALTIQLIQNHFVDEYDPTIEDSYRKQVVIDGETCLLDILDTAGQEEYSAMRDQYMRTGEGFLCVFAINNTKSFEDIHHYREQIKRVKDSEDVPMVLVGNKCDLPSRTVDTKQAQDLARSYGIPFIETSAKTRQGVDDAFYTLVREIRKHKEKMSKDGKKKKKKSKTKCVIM

Structure (SMILES) | IC50 (GDP-loaded KRAS G12D) [nM] | EC50 (GP2D (KRAS G12D) cells) [nM]
Oc1cc(-c2nc3c4c(nc(OC[C@@]56CCCN5C[C@H](F)C6)nc4c2F)N2CC4CCC(N4)[C@H]2CO3)c2ccccc2c1 (stereo in doubt) [Example 18, 4-((5aS,6S,9R)-1-fluoro-12-(((2R,7aS)-2-fluorotetrahydro-1H-pyrrolizin-7a(5H)-yl)methoxy)-5a,6,7,8,9,10-hexahydro-5H-4-oxa-3,10a,11,13,14-pentaaza-6,9-methanonaphtho[1,8-ab]heptalen-2-yl)naphthalen-2-ol] | > 1000 | > 10000
Oc1cc(-c2nc3c4c(nc(OC[C@@]56CCCN5C[C@H](F)C6)nc4c2F)N2CC4CCC(N4)[C@@H]2CO3)c2ccccc2c1 (stereo in doubt) [Example 21, 4-((5aR,6S,9R)-1-fluoro-12-(((2R,7aS)-2-fluorotetrahydro-1H-pyrrolizin-7a(5H)-yl)methoxy)-5a,6,7,8,9,10-hexahydro-5H-4-oxa-3,10a,11,13,14-pentaaza-6,9-methanonaphtho[1,8-ab]heptalen-2-yl)naphthalen-2-ol] | 2100 | 3100
C=C(Cl)c1c(C)ccc2cc(O)cc(-c3nc4c5c(nc(OC[C@@]67CCCN6C[C@H](F)C7)nc5c3F)N3CC5CCC(N5)[C@H]3CO4)c12 (stereo in doubt) [Example 74, 5-(1-chlorovinyl)-4-((5aS,6R,9S)-1-fluoro-12-(((2R,7aS)-2-fluorotetrahydro-1H-pyrrolizin-7a(5H)-yl)methoxy)-5a,6,7,8,9,10-hexahydro-5H-4-oxa-3,10a,11,13,14-pentaaza-6,9-methanonaphtho[1,8-ab]heptalen-2-yl)-6-methylnaphthalen-2-ol] | 16 | 310
C#Cc1c(F)ccc2cccc(-c3nc4c5c(nc(OC[C@@]67CCCN6C[C@@H](OC(C(F)(F)F)(C(F)(F)F)C(F)(F)F)C7)nc5c3F)N3C[C@H]5CC[C@H](N5)[C@H]3CC4)c12 (stereo in doubt) [Example 135, (5aR,6S,9R)-2-(8-ethynyl-7-fluoronaphthalen-1-yl)-1-fluoro-12-((cis-2-((1,1,1,3,3,3-hexafluoro-2-(trifluoromethyl)propan-2-yl)oxy)tetrahydro-1H-pyrrolizin-7a(5H)-yl)methoxy)-4,5,5a,6,7,8,9,10-octahydro-3,10a,11,13,14-pentaaza-6,9-methanonaphtho[1,8-ab]heptalene] | 88.1 | 100
C#Cc1c(F)ccc2cccc(-c3nc4c5c(nc(OC[C@@]67CCCN6C[C@@H](OC(F)(F)F)C7)nc5c3F)N3C[C@H]5CC[C@H](N5)[C@H]3CC4)c12 (stereo in doubt) [Example 140, (5aR,6S,9R)-2-(8-ethynyl-7-fluoronaphthalen-1-yl)-1-fluoro-12-((cis-2-(trifluoromethoxy)tetrahydro-1H-pyrrolizin-7a(5H)-yl)methoxy)-4,5,5a,6,7,8,9,10-octahydro-3,10a,11,13,14-pentaaza-6,9-methanonaphtho[1,8-ab]heptalene] | – | 75.9
C#Cc1c(F)ccc2cccc(-c3nc4c5c(nc(OC[C@]67CCCN6C[C@@H](OC(F)(F)F)C7)nc5c3F)N3C[C@H]5CC[C@H](N5)[C@H]3CC4)c12 (stereo in doubt) [Example 142, (5aR,6S,9R)-2-(8-ethynyl-7-fluoronaphthalen-1-yl)-1-fluoro-12-((trans-2-(trifluoromethoxy)tetrahydro-1H-pyrrolizin-7a(5H)-yl)methoxy)-4,5,5a,6,7,8,9,10-octahydro-3,10a,11,13,14-pentaaza-6,9-methanonaphtho[1,8-ab]heptalene] | 3.6 | 94.8
Oc1cc(-c2nc3c4c(nc(OC[C@@]56CCCN5C[C@H](F)C6)nc4c2F)N2C[C@H]4CC[C@H](N4)[C@H]2CO3)c2c(F)cccc2c1 [Example 5, 5-fluoro-4-((5aS,6S,9R)-1-fluoro-12-(((2R,7aS)-2-fluorotetrahydro-1H-pyrrolizin-7a(5H)-yl)methoxy)-5a,6,7,8,9,10-hexahydro-5H-4-oxa-3,10a,11,13,14-pentaaza-6,9-methanonaphtho[1,8-ab]heptalen-2-yl)naphthalen-2-ol] | 3 | 250
Oc1cc(-c2nc3c4c(nc(OC[C@@]56CCCN5C[C@H](F)C6)nc4c2F)N2C[C@H]4CC[C@H](N4)[C@H]2CO3)c2c(F)c(Cl)ccc2c1 [Example 6, 6-chloro-5-fluoro-4-((5aS,6S,9R)-1-fluoro-12-(((2R,7aS)-2-fluorotetrahydro-1H-pyrrolizin-7a(5H)-yl)methoxy)-5a,6,7,8,9,10-hexahydro-5H-4-oxa-3,10a,11,13,14-pentaaza-6,9-methanonaphtho[1,8-ab]heptalen-2-yl)naphthalen-2-ol] | 2 | 70
Oc1cc(-c2nc3c4c(nc(OC[C@@]56CCCN5C[C@H](F)C6)nc4c2F)N2C[C@H]4CC[C@H](N4)[C@H]2CO3)c2c(OC(F)(F)F)c(F)ccc2c1 [Example 7, 6-fluoro-4-((5aS,6S,9R)-1-fluoro-12-(((2R,7aS)-2-fluorotetrahydro-1H-pyrrolizin-7a(5H)-yl)methoxy)-5a,6,7,8,9,10-hexahydro-5H-4-oxa-3,10a,11,13,14-pentaaza-6,9-methanonaphtho[1,8-ab]heptalen-2-yl)-5-(trifluoromethoxy)naphthalen-2-ol] | 0.6 | 16
Oc1cc(-c2nc3c4c(nc(OC[C@@]56CCCN5C[C@H](F)C6)nc4c2F)N2C[C@H]4CC[C@H](N4)[C@H]2CO3)c2cc(F)ccc2c1 [Example 8, 6-fluoro-4-((5aS,6S,9R)-1-fluoro-12-(((2R,7aS)-2-fluorotetrahydro-1H-pyrrolizin-7a(5H)-yl)methoxy)-5a,6,7,8,9,10-hexahydro-5H-4-oxa-3,10a,11,13,14-pentaaza-6,9-methanonaphtho[1,8-ab]heptalen-2-yl)naphthalen-2-ol] | 2 | 54
Oc1cc(-c2nc3c4c(nc(OC[C@@]56CCCN5C[C@H](F)C6)nc4c2F)N2C[C@H]4CC[C@H](N4)[C@H]2CO3)c2c(C=C(F)F)c(F)ccc2c1 [Example 10, 5-(2,2-difluorovinyl)-6-fluoro-4-((5aS,6S,9R)-1-fluoro-12-(((2R,7aS)-2-fluorotetrahydro-1H-pyrrolizin-7a(5H)-yl)methoxy)-5a,6,7,8,9,10-hexahydro-5H-4-oxa-3,10a,11,13,14-pentaaza-6,9-methanonaphtho[1,8-ab]heptalen-2-yl)naphthalen-2-ol] | 18 | 250
Oc1cc(-c2nc3c4c(nc(OC[C@@]56CCCN5C[C@H](F)C6)nc4c2F)N2C[C@H]4CC[C@H](N4)[C@H]2CO3)c2c(F)c(F)c(F)cc2c1 [Example 11, 5,6,7-trifluoro-4-((5aS,6S,9R)-1-fluoro-12-(((2R,7aS)-2-fluorotetrahydro-1H-pyrrolizin-7a(5H)-yl)methoxy)-5a,6,7,8,9,10-hexahydro-5H-4-oxa-3,10a,11,13,14-pentaaza-6,9-methanonaphtho[1,8-ab]heptalen-2-yl)naphthalen-2-ol] | 1 | 56
C#Cc1c(F)ccc2cc(O)cc(-c3nc4c5c(nc(OC[Si](C)(C)CN6CCOCC6)nc5c3F)N3C[C@H]5CC[C@H](N5)[C@H]3CO4)c12 [Example 29, 4-((5aS,6S,9R)-12-((dimethyl(morpholinomethyl)silyl)methoxy)-1-fluoro-5a,6,7,8,9,10-hexahydro-5H-4-oxa-3,10a,11,13,14-pentaaza-6,9-methanonaphtho[1,8-ab]heptalen-2-yl)-5-ethynyl-6-fluoronaphthalen-2-ol] | – | > 1000
Fc1ccc2cccc(-c3nc4c5c(nc(OC[C@@]67CCCN6C[C@H](F)C7)nc5c3F)N3C[C@H]5CC[C@H](N5)[C@H]3CC4)c2c1OC(F)(F)F [Example 65, (5aR,6S,9R)-1-fluoro-2-(7-fluoro-8-(trifluoromethoxy)naphthalen-1-yl)-12-(((2R,7aS)-2-fluorotetrahydro-1H-pyrrolizin-7a(5H)-yl)methoxy)-4,5,5a,6,7,8,9,10-octahydro-3,10a,11,13,14-pentaaza-6,9-methanonaphtho[1,8-ab]heptalene] | – | 450
C#Cc1c(F)ccc2cc(O)cc(-c3nc4c5c(nc(OC[C@@]67CCCN6C[C@H](F)C7)nc5c3F)N3C[C@H]5CC[C@H](N5)[C@@H]3CC4)c12 [Example 133, 5-ethynyl-6-fluoro-4-((5aS,6S,9R)-1-fluoro-12-(((2R,7aS)-2-fluorotetrahydro-1H-pyrrolizin-7a(5H)-yl)methoxy)-4,5,5a,6,7,8,9,10-octahydro-3,10a,11,13,14-pentaaza-6,9-methanonaphtho[1,8-ab]heptalen-2-yl)naphthalen-2-ol] | – | 1.1
